Where a name gives a salt, the structure may show the parent alone.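 Following 48 hours of exposure in 96-well plates, responses at five concentrations were used to interpolate endpoints linearly. GI50 marks 50% less growth.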 The source made the active and inactive calls. Cut-off read from the data, not from the text of the source: active = GI50 up to about 1.1 µM and inactive = higher.
Tests used:
Test in all cases: inhibition of tumour cell growth, NCI panel, 48 h
HCT-15 = test system: HCT-15
UO-31 = test system: UO-31
ACHN = test system: ACHN
U-251 = test system: U-251
COLO 205 = test system: COLO 205
NCI-H522 = test system: NCI-H522
OVCAR-5 = test system: OVCAR-5
OVCAR-8 = test system: OVCAR-8
EKVX = test system: EKVX
RXF 393 = test system: RXF 393
IGROV-1 = test system: IGROV-1
Hs-578T = test system: Hs-578T
SK-OV-3 = test system: SK-OV-3
SNB-19 = test system: SNB-19
MCF7 = test system: MCF7
HOP-92 = test system: HOP-92
HOP-62 = test system: HOP-62
TK-10 = test system: TK-10
HCT-116 = test system: HCT-116
DU-145 = test system: DU-145
SW-620 = test system: SW-620
SF-539 = test system: SF-539
HCC 2998 = test system: HCC 2998
NCI-H23 = test system: NCI-H23
SF-295 = test system: SF-295
UACC-62 = test system: UACC-62
A549 = test system: A549
CAKI-1 = test system: CAKI-1
SF-268 = test system: SF-268
HT-29 = test system: HT-29
OVCAR-4 = test system: OVCAR-4
Malme-3M = test system: Malme-3M
786-0 = test system: 786-0
NCI-H226 = test system: NCI-H226
SK-MEL-5 = test system: SK-MEL-5
RPMI-8226 = test system: RPMI-8226
T47D = test system: T47D
MDA-MB-231 = test system: MDA-MB-231
LOX IMVI = test system: LOX IMVI
NCI-H460 = test system: NCI-H460
SK-MEL-2 = test system: SK-MEL-2
NCI/ADR-RES = test system: NCI/ADR-RES
SN12C = test system: SN12C
MDA-MB-435 = test system: MDA-MB-435
M14 = test system: M14
UACC-257 = test system: UACC-257
BT-549 = test system: BT-549
CCRF-CEM = test system: CCRF-CEM
SK-MEL-28 = test system: SK-MEL-28
MDA-N = test system: MDA-N
HL-60 = test system: HL-60
A498 = test system: A498
KM12 = test system: KM12
OVCAR-3 = test system: OVCAR-3
PC-3 = test system: PC-3
K562 = test system: K562
SR = test system: SR
MOLT-4 = test system: MOLT-4
SNB-75 = test system: SNB-75

Measured: GI50

O=C(O)/C(Cc1ccc([N+](=O)[O-])cc1)=N\O
inactive: UO-31 23.8 µM | ACHN > 100 µM | U-251 > 100 µM | COLO 205 > 100 µM | NCI-H522 29.6 µM | OVCAR-5 > 100 µM | OVCAR-8 > 100 µM | EKVX 39.1 µM | RXF 393 > 100 µM | IGROV-1 69.8 µM | Hs-578T 31.8 µM | SK-OV-3 > 100 µM | SNB-19 > 100 µM | MCF7 > 100 µM | HOP-92 27.9 µM | HOP-62 > 100 µM | TK-10 > 100 µM | HCT-116 > 100 µM | DU-145 > 100 µM | SW-620 > 100 µM | SF-539 > 100 µM | HCC 2998 > 100 µM | NCI-H23 > 100 µM | SF-295 > 100 µM | UACC-62 > 100 µM | A549 > 100 µM | CAKI-1 > 100 µM | SF-268 > 100 µM | HT-29 > 100 µM | OVCAR-4 89.5 µM | Malme-3M > 100 µM | 786-0 > 100 µM | NCI-H226 > 100 µM | SK-MEL-5 > 100 µM | RPMI-8226 > 100 µM | T47D 94.6 µM | MDA-MB-231 > 100 µM | LOX IMVI > 100 µM | NCI-H460 > 100 µM | SK-MEL-2 > 100 µM | NCI/ADR-RES > 100 µM | SN12C > 100 µM | MDA-MB-435 > 100 µM | M14 > 100 µM | UACC-257 > 100 µM | BT-549 76.2 µM | CCRF-CEM 73.6 µM | SK-MEL-28 > 100 µM | MDA-N > 100 µM | HL-60 61.9 µM | A498 > 100 µM | KM12 > 100 µM | OVCAR-3 > 100 µM | PC-3 > 100 µM | K562 > 100 µM
> 100 µM: HCT-15

CN1[C@@H]2CC[C@H]1C[C@@H](OC(c1ccccc1)c1ccccc1)C2 [BENZTROPINE MESYLATE]
22.5 µM: HCT-15
inactive: SR 19.5 µM | UO-31 15.3 µM | ACHN 19.7 µM | U-251 15.5 µM | COLO 205 11.3 µM | NCI-H522 14.9 µM | OVCAR-5 18.4 µM | OVCAR-8 16.4 µM | EKVX 31.6 µM | RXF 393 15.5 µM | IGROV-1 17 µM | Hs-578T 13.1 µM | SK-OV-3 17.9 µM | SNB-19 22 µM | MCF7 13.9 µM | HOP-92 12.4 µM | HOP-62 15.6 µM | TK-10 17.3 µM | HCT-116 12.6 µM | DU-145 26.9 µM | SW-620 14.5 µM | NCI-H23 27.3 µM | SF-295 11.4 µM | UACC-62 16.8 µM | A549 16.9 µM | CAKI-1 23.6 µM | SF-268 18.5 µM | HT-29 11 µM | OVCAR-4 25.5 µM | Malme-3M 14.9 µM | 786-0 14 µM | NCI-H226 27.5 µM | SK-MEL-5 15.6 µM | RPMI-8226 14.7 µM | T47D 17.3 µM | MDA-MB-231 17.5 µM | LOX IMVI 16 µM | SK-MEL-2 17.1 µM | MOLT-4 21 µM | NCI/ADR-RES 16.2 µM | SN12C 27.9 µM | MDA-MB-435 13.9 µM | M14 14.7 µM | UACC-257 13.7 µM | BT-549 19.1 µM | CCRF-CEM 14 µM | SK-MEL-28 14.7 µM | MDA-N 15.1 µM | SNB-75 17.3 µM | HL-60 18.2 µM | A498 14 µM | KM12 17.2 µM | OVCAR-3 15.9 µM | PC-3 16.6 µM | K562 13.1 µM

Nc1cc(F)ccc1CC(=O)O
inactive: SR > 100 µM | UO-31 > 100 µM | ACHN > 100 µM | U-251 > 100 µM | COLO 205 > 100 µM | NCI-H522 > 100 µM | OVCAR-5 > 100 µM | OVCAR-8 > 100 µM | EKVX > 100 µM | RXF 393 > 100 µM | IGROV-1 > 100 µM | Hs-578T > 100 µM | SK-OV-3 > 100 µM | SNB-19 > 100 µM | MCF7 > 100 µM | HOP-62 > 100 µM | TK-10 > 100 µM | HCT-116 > 100 µM | DU-145 > 100 µM | SW-620 > 100 µM | SF-539 > 100 µM | HCC 2998 > 100 µM | NCI-H23 > 100 µM | SF-295 > 100 µM | UACC-62 > 100 µM | A549 > 100 µM | CAKI-1 > 100 µM | SF-268 > 100 µM | HT-29 > 100 µM | Malme-3M > 100 µM | 786-0 > 100 µM | NCI-H226 > 100 µM | SK-MEL-5 > 100 µM | RPMI-8226 > 100 µM | T47D > 100 µM | MDA-MB-231 > 100 µM | LOX IMVI > 100 µM | SK-MEL-2 > 100 µM | MOLT-4 > 100 µM | NCI/ADR-RES > 100 µM | SN12C > 100 µM | MDA-MB-435 > 100 µM | M14 > 100 µM | UACC-257 > 100 µM | BT-549 79.3 µM | CCRF-CEM > 100 µM | SK-MEL-28 > 100 µM | MDA-N > 100 µM | SNB-75 > 100 µM | HL-60 > 100 µM | A498 > 100 µM | KM12 > 100 µM | PC-3 > 100 µM | K562 > 100 µM
> 100 µM: HCT-15

O=C(O)C1C2CC3C(OC(=O)C31)C2Br (stereo not given)
> 100 µM: HCT-15
inactive: UO-31 > 100 µM | ACHN > 100 µM | U-251 > 100 µM | COLO 205 > 100 µM | NCI-H522 > 100 µM | OVCAR-5 > 100 µM | OVCAR-8 > 100 µM | EKVX > 100 µM | RXF 393 > 100 µM | IGROV-1 > 100 µM | Hs-578T > 100 µM | SK-OV-3 > 100 µM | SNB-19 > 100 µM | MCF7 > 100 µM | HOP-92 > 100 µM | HOP-62 > 100 µM | TK-10 > 100 µM | HCT-116 > 100 µM | DU-145 > 100 µM | SW-620 > 100 µM | SF-539 > 100 µM | NCI-H23 > 100 µM | SF-295 > 100 µM | UACC-62 > 100 µM | A549 > 100 µM | CAKI-1 > 100 µM | SF-268 > 100 µM | HT-29 > 100 µM | OVCAR-4 > 100 µM | Malme-3M > 100 µM | 786-0 > 100 µM | NCI-H226 > 100 µM | SK-MEL-5 > 100 µM | RPMI-8226 > 100 µM | T47D > 100 µM | MDA-MB-231 > 100 µM | LOX IMVI > 100 µM | NCI-H460 > 100 µM | SK-MEL-2 > 100 µM | MOLT-4 > 39.5 µM | NCI/ADR-RES > 100 µM | SN12C > 100 µM | MDA-MB-435 > 100 µM | M14 > 100 µM | UACC-257 > 100 µM | BT-549 > 100 µM | CCRF-CEM > 100 µM | SK-MEL-28 > 100 µM | MDA-N > 100 µM | SNB-75 > 100 µM | A498 > 100 µM | KM12 > 100 µM | OVCAR-3 > 100 µM | PC-3 > 100 µM | K562 > 47.8 µM
active: SR 0.432 µM

Oc1[nH]c(Nc2cccc(CC(F)(F)F)c2)nc2ncnc1-2
> 100 µM: HCT-15
inactive: SR > 100 µM | UO-31 > 100 µM | ACHN > 100 µM | U-251 > 100 µM | COLO 205 > 100 µM | NCI-H522 > 100 µM | OVCAR-5 > 100 µM | OVCAR-8 > 100 µM | EKVX > 100 µM | IGROV-1 > 100 µM | Hs-578T > 100 µM | SK-OV-3 > 100 µM | SNB-19 > 100 µM | MCF7 > 100 µM | HOP-92 > 100 µM | HOP-62 > 100 µM | TK-10 > 100 µM | HCT-116 > 100 µM | DU-145 > 100 µM | SW-620 > 100 µM | SF-539 > 100 µM | HCC 2998 > 100 µM | NCI-H23 > 100 µM | SF-295 > 100 µM | UACC-62 > 100 µM | A549 > 100 µM | CAKI-1 > 100 µM | SF-268 > 100 µM | HT-29 > 100 µM | OVCAR-4 > 100 µM | Malme-3M > 100 µM | 786-0 > 100 µM | NCI-H226 > 100 µM | SK-MEL-5 > 100 µM | RPMI-8226 > 100 µM | T47D > 100 µM | MDA-MB-231 > 100 µM | LOX IMVI > 100 µM | NCI-H460 > 100 µM | SK-MEL-2 > 100 µM | NCI/ADR-RES > 100 µM | SN12C > 100 µM | MDA-MB-435 > 100 µM | M14 > 100 µM | UACC-257 > 100 µM | BT-549 > 100 µM | CCRF-CEM > 100 µM | SK-MEL-28 > 100 µM | MDA-N > 100 µM | SNB-75 95.5 µM | HL-60 > 100 µM | A498 > 100 µM | KM12 > 100 µM | OVCAR-3 > 100 µM | PC-3 > 100 µM

Reference: ChEMBL document CHEMBL1201862, “PubChem BioAssay data set” (2004)
